From BindingDB's records for doi:10.1042/0264-6021:3510095 (University of Dundee, 2001)

Assay: Inhibition of His-tagged human PDK1 expressed in Sf21 cells

IC50: 300 nM
Structure (SMILES): CCCCCCOC(=O)[C@@]1(O)C[C@H]2O[C@]1(C)n1c3ccccc3c3c4c(c5c6ccccc6n2c5c31)C(=O)NC4 [KT-5720]
